The source made the active and inactive calls. How the calls were made is not given here.
System: CCRIS mutagenicity, Ames/micronucleus/aberration tests
Experiment: CCRIS mutagenicity studies
[1] = Test System: AMES SALMONELLA TYPHIMURIUM, Strain/Indicator: TA98, Metabolic Activation: RAT, LIVER, S-9, AROCLOR 1254, Method: STANDARD PLATE
[2] = Test System: AMES SALMONELLA TYPHIMURIUM, Strain/Indicator: TA100, Metabolic Activation: NONE, Method: STANDARD PLATE
[3] = Test System: AMES SALMONELLA TYPHIMURIUM, Strain/Indicator: TA1535, Metabolic Activation: RAT, LIVER, S-9, AROCLOR 1254, Method: STANDARD PLATE
[4] = Test System: AMES SALMONELLA TYPHIMURIUM, Strain/Indicator: TA1538, Metabolic Activation: RAT, LIVER, S-9, AROCLOR 1254, Method: STANDARD PLATE
[5] = Test System: MOUSE LYMPHOMA, Strain/Indicator: L5178Y (TK+/TK-), Metabolic Activation: NONE, Method: SUSPENSION/PLATE
[6] = Test System: MOUSE LYMPHOMA, Strain/Indicator: L5178Y (TK+/TK-), Metabolic Activation: RAT, LIVER, S-9, AROCLOR 1254, Method: SUSPENSION/PLATE
[7] = Test System: AMES SALMONELLA TYPHIMURIUM, Strain/Indicator: TA100, Metabolic Activation: NONE, Method: PREINCUBATION
[8] = Test System: AMES SALMONELLA TYPHIMURIUM, Strain/Indicator: TA100, Metabolic Activation: RAT, LIVER, S-9, PCB, Method: PREINCUBATION

Measured: mutagenic call

CC(C)C[C@H]1C(=O)N2CCC[C@H]2[C@]2(O)O[C@](NC(=O)[C@@H]3C[C@@H]4c5cccc6[nH]cc(c56)C[C@H]4N(C)C3)(C(C)C)C(=O)N12
inactive: Test System: AMES SALMONELLA TYPHIMURIUM, Strain/Indicator: TA98, Metabolic Activation: NONE, Method: STANDARD PLATE inactive; negative | [1] inactive; negative | [2] inactive; negative | Test System: AMES SALMONELLA TYPHIMURIUM, Strain/Indicator: TA100, Metabolic Activation: RAT, LIVER, S-9, AROCLOR 1254, Method: STANDARD PLATE inactive; negative | Test System: AMES SALMONELLA TYPHIMURIUM, Strain/Indicator: TA1535, Metabolic Activation: NONE, Method: STANDARD PLATE inactive; negative | [3] inactive; negative | Test System: AMES SALMONELLA TYPHIMURIUM, Strain/Indicator: TA1537, Metabolic Activation: NONE, Method: STANDARD PLATE inactive; negative | Test System: AMES SALMONELLA TYPHIMURIUM, Strain/Indicator: TA1537, Metabolic Activation: RAT, LIVER, S-9, AROCLOR 1254, Method: STANDARD PLATE inactive; negative | Test System: AMES SALMONELLA TYPHIMURIUM, Strain/Indicator: TA1538, Metabolic Activation: NONE, Method: STANDARD PLATE inactive; negative | [4] inactive; negative | [5] inactive; negative | [6] inactive; negative | Test System: UDS RAT HEPATOCYTES, Strain/Indicator: THY INCORP, Metabolic Activation: NONE inactive; negative

Cc1cccc(C)c1NO
active: [7] active; positive | [8] active; positive

O=c1c2c(c3c(ccc4cc5c(ccc6ccccc65)[nH]c43)c1O)O2
active: Test System: AMES SALMONELLA TYPHIMURIUM, Strain/Indicator: TA98, Metabolic Activation: RAT, LIVER, AROCLOR 1254, NADPH GENERATING SYSTEM, Method: STANDARD PLATE active; positive | Test System: AMES SALMONELLA TYPHIMURIUM, Strain/Indicator: TA100, Metabolic Activation: RAT, LIVER, AROCLOR 1254, NADPH GENERATING SYSTEM, Method: STANDARD PLATE active; positive | Test System: CHINESE HAMSTER V-79, Strain/Indicator: V-79/8-AZAGUANINE, Method: STANDARD PLATE active; positive

COc1cc(-c2ccc(N)c(OC)c2)ccc1N
active: End Point: IN VITRO CHROMOSOMAL ABERRATIONS, Test System: CHL CELLS, Metabolic Activation: RAT, LIVER, S-9, SODIUM PHENOBARBITAL AND 5,6-BENZOFLAVONE active; positive (structural changes); precipitation of test chemical observed above 0.6 | Test System: AMES SALMONELLA TYPHIMURIUM, Strain/Indicator: TA98(1,8-DNP6), Metabolic Activation: S-9, Method: STANDARD PLATE active; positive | Test System: AMES SALMONELLA TYPHIMURIUM, Strain/Indicator: TA98, Metabolic Activation: HAMSTER, LIVER, S-9, AROCLOR 1254, Method: PREINCUBATION active; positive | Test System: AMES SALMONELLA TYPHIMURIUM, Strain/Indicator: TA98, Metabolic Activation: RAT LIVER S-9, AROCLOR 1254, Method: PREINCUBATION active; positive | Test System: AMES SALMONELLA TYPHIMURIUM, Strain/Indicator: TA98, Metabolic Activation: RAT LIVER S-9, PHENOBARBITAL AND BETA-NAPHTHOFLAVONE, Method: PREINCUBATION active; positive | Test System: AMES SALMONELLA TYPHIMURIUM, Strain/Indicator: TA98, Metabolic Activation: RAT, LIVER, S-9, AROCLOR 1254, Method: PREINCUBATION active; positive | [1] active; positive | Test System: AMES SALMONELLA TYPHIMURIUM, Strain/Indicator: TA98, Metabolic Activation: RAT, LIVER, S-9, PCB, Method: PREINCUBATION active; positive | Test System: AMES SALMONELLA TYPHIMURIUM, Strain/Indicator: TA98, Metabolic Activation: S-9, Method: STANDARD PLATE active; positive | Test System: AMES SALMONELLA TYPHIMURIUM, Strain/Indicator: TA100, Metabolic Activation: RAT LIVER S-9, AROCLOR 1254, Method: PREINCUBATION active; positive | Test System: AMES SALMONELLA TYPHIMURIUM, Strain/Indicator: TA100, Metabolic Activation: RAT, LIVER, S-9, AROCLOR 1254, Method: PREINCUBATION active; positive | [8] active; positive | [3] active; positive | Test System: AMES SALMONELLA TYPHIMURIUM, Strain/Indicator: TA1538, Metabolic Activation: HAMSTER, LIVER, S-9, Method: STANDARD PLATE active; positive | [4] active; positive | Test System: AMES SALMONELLA TYPHIMURIUM, Strain/Indicator: TA1538, Metabolic Activation: RAT, LIVER, S-9, PHENOBARBITAL, Method: STANDARD PLATE active; positive | Test System: Ames Salmonella typhimurium, Strain/Indicator: TA98, Metabolic Activation: Rat, Liver, S-9, Sodium phenobarbitone, Method: Preincubation active; positive, test conducted under both aerobic and anaerobic conditions. | Test System: Ames Salmonella typhimurium, Strain/Indicator: TA102, Metabolic Activation: Rat, Liver, S-9, Aroclor 1254, 4%, Method: Preincubation active; positive | Test System: Ames Salmonella typhimurium, Strain/Indicator: TA1538, Metabolic Activation: Rat, Liver, S-9, Sodium phenobarbitone, Method: Preincubation active; positive, test conducted under both aerobic and anaerobic conditions. | [5] active; positive | [6] active; positive | Test System: UDS HUMAN CELLS, Strain/Indicator: THY INCORP (NON-S-PHASE), Metabolic Activation: RAT, LIVER, S-9, PHENOBARBITAL, Method: LIQUID SCINTILLATION COUNTING active; positive
inactive: Test System: AMES SALMONELLA TYPHIMURIUM, Strain/Indicator: SV50, Metabolic Activation: NONE, Method: PREINCUBATION (PRIVAL METHOD) inactive; negative | Test System: AMES SALMONELLA TYPHIMURIUM, Strain/Indicator: SV50, Metabolic Activation: RAT, LIVER, S-9, AROCLOR 1254, Method: STANDARD PLATE inactive; negative | Test System: AMES SALMONELLA TYPHIMURIUM, Strain/Indicator: TA98(1,8-DNP6), Metabolic Activation: NONE, Method: STANDARD PLATE inactive; negative | Test System: AMES SALMONELLA TYPHIMURIUM, Strain/Indicator: TA98, Metabolic Activation: HAMSTER, LIVER, S-9, Method: PREINCUBATION (PRIVAL METHOD) inactive; negative | Test System: AMES SALMONELLA TYPHIMURIUM, Strain/Indicator: TA100, Metabolic Activation: HAMSTER, LIVER, S-9, AROCLOR 1254, Method: PREINCUBATION inactive; negative | [7] inactive; negative | [2] inactive; negative | Test System: AMES SALMONELLA TYPHIMURIUM, Strain/Indicator: TA100, Metabolic Activation: RAT LIVER S-9, PHENOBARBITAL AND BETA-NAPHTHOFLAVONE, Method: PREINCUBATION inactive; negative | Test System: AMES SALMONELLA TYPHIMURIUM, Strain/Indicator: TA100, Metabolic Activation: S-9, Method: STANDARD PLATE inactive; negative | Test System: AMES SALMONELLA TYPHIMURIUM, Strain/Indicator: TA1535, Metabolic Activation: NONE, Method: PREINCUBATION inactive; negative | Test System: AMES SALMONELLA TYPHIMURIUM, Strain/Indicator: TA1535, Metabolic Activation: RAT, LIVER, S-9, AROCLOR 1254, Method: PREINCUBATION inactive; negative | Test System: AMES SALMONELLA TYPHIMURIUM, Strain/Indicator: TA1537, Metabolic Activation: HAMSTER, LIVER, S-9, AROCLOR 1254, Method: PREINCUBATION inactive; negative | Test System: AMES SALMONELLA TYPHIMURIUM, Strain/Indicator: TA1537, Metabolic Activation: NONE, Method: PREINCUBATION inactive; negative | Test System: AMES SALMONELLA TYPHIMURIUM, Strain/Indicator: TA1537, Metabolic Activation: RAT LIVER S-9, PHENOBARBITAL AND BETA-NAPHTHOFLAVONE, Method: PREINCUBATION inactive; negative | Test System: AMES SALMONELLA TYPHIMURIUM, Strain/Indicator: TA1537, Metabolic Activation: RAT, LIVER, S-9, AROCLOR 1254, Method: PREINCUBATION inactive; negative | Test System: Ames Salmonella typhimurium, Strain/Indicator: TA102, Metabolic Activation: None, Method: Preincubation inactive; negative
